Data taken from PubChem BioAssay AID296 (DTP/NCI, 2004).
Values joined by “and” are separate entries in the source; they are usually repeats but may differ in a detail not shown here. Equal values may be shown once. Inconclusive results are not listed.

Tested on: MX-1 breast xenograft, nude mice, tumor weight T/C
Test: NCI In Vivo Anticancer Drug Screen. Data for tumor model Human Mammary Carcinoma MX-1 Xenograft (intrarenal inoculation) in NU/NU Swiss (nude) mice
Conditions: endpoint: mean tumor weight change, higher = larger tumour
How it was run: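 Compound dosed to mice with transplantable tumor; vehicle group as control. Endpoint survival or tumour size, reported as T/C.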

[1] = dose: 400.0 mg/kg/injection, schedule: Q04DX003 (sc), vehicle: saline with Tween-80
[2] = dose: 30.0 mg/kg/injection, schedule: Q04DX003 (sc), vehicle: saline
[3] = dose: 300.0 mg/kg/injection, schedule: Q04DX003 (sc), vehicle: saline
[4] = dose: 600.0 mg/kg/injection, schedule: Q04DX003 (sc), vehicle: saline
[5] = dose: 1200.0 mg/kg/injection, schedule: Q04DX003 (sc), vehicle: saline

O=C1C2CC=CCC2C(=O)N1SC(Cl)(Cl)Cl (stereo not drawn)
T/C (dose: 37.5 mg/kg/injection, schedule: Q04DX003 (sc), vehicle: saline with Tween-80): 85 % of control | T/C (dose: 75.0 mg/kg/injection, schedule: Q04DX003 (sc), vehicle: saline with Tween-80): 77 % of control | T/C (dose: 150.0 mg/kg/injection, schedule: Q04DX003 (sc), vehicle: saline with Tween-80): 97 % of control and 119 % of control | T/C (dose: 300.0 mg/kg/injection, schedule: Q04DX003 (sc), vehicle: saline with Tween-80): 97 % of control and 112 % of control

CN(C)c1nc(N(C)C)nc(N(C)C)n1
T/C (dose: 25.0 mg/kg/injection, schedule: Q01DX010 (sc), vehicle: Klucel (hydroxypropylcellulose) (HPC)): 5 % of control | T/C (dose: 50.0 mg/kg/injection, schedule: Q01DX010 (sc), vehicle: Klucel (hydroxypropylcellulose) (HPC)): 21 % of control | T/C (dose: 100.0 mg/kg/injection, schedule: Q01DX010 (sc), vehicle: Klucel (hydroxypropylcellulose) (HPC)): -82 % of control | T/C (dose: 600.0 mg/kg/injection, schedule: Q04DX003 (sc), vehicle: saline with Tween-80): -87 % of control and -100 % of control

CC12CCC3C(CCC4CC(OC(=O)Cc5ccc(N(CCCl)CCCl)cc5)CCC43C)C1CCC(=O)N2 (stereo not drawn)
T/C (dose: 25.0 mg/kg/injection, schedule: Q04DX003 (sc), vehicle: saline with Tween-80): 3 % of control | T/C [1]: -82 % of control

CC(=S)NC(O)C(=O)c1ccccc1 (stereo not drawn)
T/C (dose: 200.0 mg/kg/injection, schedule: Q04DX003 (sc), vehicle: saline with Tween-80): 163 % of control | T/C [1]: 122 % of control | T/C (dose: 800.0 mg/kg/injection, schedule: Q04DX003 (sc), vehicle: saline with Tween-80): 152 % of control | T/C (dose: 1600.0 mg/kg/injection, schedule: Q04DX003 (sc), vehicle: saline with Tween-80): 123 % of control

OCCN1CCN(CCCN2c3ccccc3Sc3ccc(C(F)(F)F)cc32)CC1
T/C [2]: 87 % of control | T/C (dose: 60.0 mg/kg/injection, schedule: Q04DX003 (sc), vehicle: saline): 50 % of control and 71 % of control | T/C (dose: 480.0 mg/kg/injection, schedule: Q04DX003 (sc), vehicle: saline): 36 % of control

Nc1nc(F)nc2c1ncn2C1OC(COP(=O)(O)O)C(O)C1O (stereo not drawn)
T/C (dose: 50.0 mg/kg/injection, schedule: Q01DX010 (sc), vehicle: saline): 86 % of control | T/C (dose: 100.0 mg/kg/injection, schedule: Q01DX010 (sc), vehicle: saline): 69 % of control | T/C (dose: 200.0 mg/kg/injection, schedule: Q01DX010 (sc), vehicle: saline): 91 % of control

C[N+](C)(C)c1ncnc2c1ncn2C1CCCO1 (stereo not drawn)
T/C (dose: 0.25 mg/kg/injection, schedule: Q01DX010 (sc), vehicle: saline): 83 % of control | T/C (dose: 0.5 mg/kg/injection, schedule: Q01DX010 (sc), vehicle: saline): 112 % of control | T/C (dose: 1.0 mg/kg/injection, schedule: Q01DX010 (sc), vehicle: saline): 50 % of control | T/C (dose: 2.0 mg/kg/injection, schedule: Q01DX010 (sc), vehicle: saline): 163 % of control

N=C(N)CCCCCCCCC(=N)N
T/C (dose: 18.75 mg/kg/injection, schedule: Q04DX003 (sc), vehicle: saline): 124 % of control

O=[N+]([O-])O.O=[N+]([O-])O.[NH-]C1CCCCC1[NH-].[Pt+2] (stereo not drawn)
T/C (dose: 1.0 mg/kg/injection, schedule: Q01DX010 (sc), vehicle: dextrose): 62 % of control | T/C (dose: 2.0 mg/kg/injection, schedule: Q01DX010 (sc), vehicle: dextrose): 27 % of control

O=C(O)C1CC(O)CN1 (stereo not drawn)
T/C (dose: 150.0 mg/kg/injection, schedule: Q04DX003 (sc), vehicle: saline): 67 % of control | T/C [3]: 120 % of control | T/C [4]: 91 % of control | T/C [5]: 106 % of control

C[C@H](N)C(=O)N[C@@H]1[C@H]2C(=C(O)C[C@@H](O)[C@@H]2O)C(=O)O[C@@H]1C
T/C [3]: 81 % of control | T/C [4]: 67 % of control | T/C [5]: 88 % of control | T/C (dose: 2400.0 mg/kg/injection, schedule: Q04DX003 (sc), vehicle: saline): 99 % of control

Cc1c2ccccc2cc2cccc[n+]12
T/C (dose: 7.5 mg/kg/injection, schedule: Q04DX003 (sc), vehicle: saline): 74 % of control | T/C (dose: 15.0 mg/kg/injection, schedule: Q04DX003 (sc), vehicle: saline): 88 % of control | T/C [2]: 67 % of control
